The values that follow come from patent US8017606B2, “Quinoline derivatives as antibacterial agents” (Janssen Pharmaceutica NV, priority 2005, dated 2011).

Values after ≈ are worked out from the molar mass of the structure shown.

Assay in all cases: Microtitre plate assay, IC90 determination
What all share (type): cell-based

The subject of experiment [1] is Staphylococcus aureus (ATCC25923). The following applies: 90% inhibitory concentration for bacterial growth, 37° C., resazurin fluorescence, read-out: IC90 (μg/ml) STA 25923. On the procedure: (§1) The bacteria used in this study were grown overnight in flasks containing 100 ml Mueller-Hinton Broth (Becton Dickinson—cat. no. 275730) in sterile de-ionized water, with shaking, at 37° C. Stocks (0.5 ml/tube) were stored at −70° C. until use. Bacteria titrations were performed in microtiter plates and colony forming units (CFUs) were determined. In general, an inoculum level of approximately 100 CFUs was used for susceptibility testing.
(§2) Anti Bacterial Susceptibility Testing: IC90 Determination
(§3) Flat-bottom, sterile 96-well plastic microtiter plates were filled with 180 μl of sterile deionized water, supplemented with 0.25% BSA. Subsequently, stock solutions (7.8×final test concentration) of compounds were added in 45 μl volumes in column 2 Serial five-fold dilutions (45 μl in 180 μl) were made directly in the microtiter plates from column 2 to reach column 11. Untreated control samples with (column 1) and without (column 12) inoculum were included in each microtiter plate. Depending on the bacteria type, approximately 10 to 60 CFU per well of bacteria inoculum (100 TCID50), in a volume of 100 μl in 2.8× Mueller-Hinton broth medium, was added to the rows A to H, except column 12. The same volume of broth medium without inoculum was added to column 12 in row A to H. The cultures were incubated at 37° C. for 24 hours under a normal atmosphere (incubator with open air valve and continuous ventilation). At the end of incubation, one day after inoculation, the bacterial growth was quantitated fluorometrically. Therefore resazurin (0.6 mg/ml) was added in a volume of 20 μl to all wells […], and the plates were re-incubated overnight. A change in colour from blue to pink indicated the growth of bacteria.
(§4) The fluorescence was read in a computer-controlled fluorometer (Cytofluor Biosearch) at an excitation wavelength of 530 nm and an emission wavelength of 590 nm. The % growth inhibition achieved by the compounds was calculated according to standard methods. The IC90 (expressed in μg/ml) was defined as the 90% inhibitory concentration for bacterial growth.
Background: Alamar Blue is a resazurin reagent that responds to reducing activity.

Experiment [2] has as its system Staphylococcus aureus (ATCC29213). The following applies: 90% inhibitory concentration for bacterial growth, 37° C., resazurin fluorescence, read-out: IC90 (μg/ml) STA 29213. On the procedure: as §1, §2, §3, §4
For experiment [3], the system named is Streptococcus pyogens (ATCC8668). The following applies: 90% inhibitory concentration for bacterial growth, 37° C., resazurin fluorescence, read-out: IC90 (μg/ml) SPY 8668. How it is done:
as §1, §2, §3, §4

For experiment [4], the system named is Pseudomonas aeruginosa (ATCC27853). To be noted: 90% inhibitory concentration for bacterial growth, 37° C., resazurin fluorescence, read-out: IC90 (μg/ml) PAE 27853. On the procedure: as §1, §2, §3, §4
For experiment [5], the system named is Bacillus subtilis (ATCC43639). The following applies: 90% inhibitory concentration for bacterial growth, 37° C., resazurin fluorescence, read-out: IC90 (μg/ml) BSU 43639. How it is done:
as §1, §2, §3, §4

Experiment [6] concerns Enterococcus faecalis (ATCC29212). The following applies: 90% inhibitory concentration for bacterial growth, 37° C., resazurin fluorescence, read-out: IC90 (μg/ml) EFA 29212. On the procedure: as §1, §2, §3, §4
In experiment [7] the test system is Streptococcus pneumoniae (ATCC6305). To be noted: 90% inhibitory concentration for bacterial growth, 37° C., resazurin fluorescence, read-out: IC90 (μg/ml) SPN 6305. On the procedure:
as §1, §2, §3, §4

Experiment [8] relates to Listeria monocytogenes (ATCC49594). The following applies: 90% inhibitory concentration for bacterial growth, 37° C., resazurin fluorescence, read-out: IC90 (μg/ml) LMO 49594. How it is done:
as §1, §2, §3, §4

The test system of experiment [9] is methicilline resistant Staphylococcus aureus (MRSA) (a clinical isolate from the University of Antwerp). The following applies: 90% inhibitory concentration for bacterial growth, 37° C., resazurin fluorescence, read-out: IC90 (μg/ml) STA RMETHIC. On the procedure: as §1, §2, §3, §4
Experiment [10] relates to Streptococcus mutans (ATCC33402). The following applies: 90% inhibitory concentration for bacterial growth, 37° C., resazurin fluorescence, read-out: IC90 (μg/ml) SMU 33402. How it is done:
as §1, §2, §3, §4

As to `COc1nc2cccc(C(O)(CCN(C)C)c3ccccc3)c2cc1-c1ccccc1` (stereo not shown) [Compound 4], the IC90 in experiment [1], in [2], in experiment [3], in [4], in experiment [5] and in experiment [6] was 10.4 µg/mL (≈ 25.2 µM) each time. For the same compound, the IC90 in [7], in [8] and in experiment [9] was 10.4 µg/mL (≈ 25.2 µM) each time.
With `COc1nc2cccc(C(O)(CCN(C)C)c3ccco3)c2cc1-c1ccccc1` (stereo not shown) [Compound 5], the IC90 in experiment [1], in experiment [2], in experiment [3], in experiment [4], in [5] and in experiment [6] was 10.1 µg/mL (≈ 25.1 µM) throughout. Further, the IC90 is 10.1 µg/mL (≈ 25.1 µM) in experiment [7], 10.1 µg/mL (≈ 25.1 µM) in experiment [8] and 9 µg/mL (≈ 22.4 µM) in experiment [9].
As to `COc1nc2ccc(C(O)(CCN(C)C)c3cc(F)cc(F)c3)cc2cc1Cc1ccc(C)cc1` (stereo not shown) [Compound 7], the IC90 was found to be 7.6 µg/mL (≈ 15.9 µM) in [1]; 9.5 µg/mL (≈ 19.9 µM) in [2]; 12 µg/mL (≈ 25.2 µM) in [3]; 10.7 µg/mL (≈ 22.5 µM) in experiment [4]; 37.9 µg/mL (≈ 79.5 µM) in experiment [5]; 10.7 µg/mL (≈ 22.5 µM) in [6]. For the same compound, the IC90 in experiment [7] came to 12 µg/mL (≈ 25.2 µM); in [8], 7.6 µg/mL (≈ 15.9 µM); in experiment [9], 37.9 µg/mL (≈ 79.5 µM).
Turning to `COc1cc(-c2ccccc2)c2cc(C(O)(CCN(C)C)c3cc(F)cc(F)c3)ccc2n1` (stereo not shown) [Compound 11], the IC90 in experiment [1] amounted to 11.3 µg/mL (≈ 25.2 µM); in [2], 11.3 µg/mL (≈ 25.2 µM); in [3], 9 µg/mL (≈ 20.1 µM); in [4], 11.3 µg/mL (≈ 25.2 µM); in experiment [5] it was 11.3 µg/mL (≈ 25.2 µM); in experiment [6], 11.3 µg/mL (≈ 25.2 µM). Moreover, the IC90 in experiment [7], in experiment [8] and in experiment [9] was 11.3 µg/mL (≈ 25.2 µM) each time.
Take `COc1nc2c(C(O)(CCN(C)C)c3ccco3)cc(Br)cc2cc1-c1ccccc1` (stereo not shown) [Compound 13]: the IC90 in experiment [1], in experiment [2], in [3], in [4], in [5] and in [6] was 12.1 µg/mL (≈ 25.1 µM) in each case. The IC90 in [7] was found to be 10.8 µg/mL (≈ 22.4 µM); in experiment [8] it was 12.1 µg/mL (≈ 25.1 µM); in experiment [9], 12.1 µg/mL (≈ 25.1 µM).
Regarding `COc1cc(-c2ccccc2)c2cc(C(O)(CCN(C)C)c3ccccc3)ccc2n1` (stereo not shown) [Compound 14], the IC90 in experiment [1], in experiment [2], in experiment [3], in experiment [4], in experiment [5] and in experiment [6] was 10.4 µg/mL (≈ 25.2 µM) in each case. The IC90 in [7], in [8] and in experiment [9] was 10.4 µg/mL (≈ 25.2 µM) in each case.
Take `COc1cc(-c2ccccc2)c2cc(C(O)(CCN(C)C)c3ccco3)ccc2n1` (stereo not shown) [Compound 15]: the IC90 in experiment [1], in [2], in experiment [3], in [4], in [5] and in experiment [6] was 10.1 µg/mL (≈ 25.1 µM) each time. The IC90 in [7], in experiment [8] and in experiment [9] was 10.1 µg/mL (≈ 25.1 µM) in each case.
`COc1cc(-c2ccccc2)c2cc(C(O)(CCN(C)C)c3ccccn3)ccc2n1` (stereo not shown) [Compound 16]: the IC90 in experiment [1], in experiment [2], in [3], in [4], in experiment [5] and in experiment [6] was 10.4 µg/mL (≈ 25.1 µM) in each case. Moreover, the IC90 in experiment [7], in experiment [8] and in experiment [9] was 10.4 µg/mL (≈ 25.1 µM) each time.
Consider `CN(C)CCC(O)(c1cc(F)cc(F)c1)c1ccc2nc(-c3cccnc3)cc(-c3ccccc3)c2c1` (stereo not shown) [Compound 42], for which the IC90 stood at 9.9 µg/mL (≈ 20 µM) in [1]; 39.4 µg/mL (≈ 79.5 µM) in [2]; 12.5 µg/mL (≈ 25.2 µM) in experiment [3]; 12.5 µg/mL (≈ 25.2 µM) in [4]; 12.5 µg/mL (≈ 25.2 µM) in [5]; 12.5 µg/mL (≈ 25.2 µM) in [6]. The IC90 in [7] turned out to be 12.5 µg/mL (≈ 25.2 µM); in experiment [8], 39.4 µg/mL (≈ 79.5 µM); in experiment [9] it was 49.6 µg/mL (≈ 100 µM).
For the compound `CN(C)CCC(O)(c1ccccc1)c1ccc2nc(-c3cccnc3)cc(-c3ccccc3)c2c1` (stereo not shown) [Compound 43], the IC90 in experiment [2], in experiment [3], in [4], in experiment [6] and in [7] was 11.5 µg/mL (≈ 25 µM) each time.
Regarding `CN(C)CCC(O)(c1ccc2nc(-c3cccnc3)cc(-c3ccccc3)c2c1)c1ccco1` (stereo not shown) [Compound 44], the IC90 in experiment [1], in experiment [2], in experiment [3], in [4], in experiment [5] and in [6] was 11.3 µg/mL (≈ 25.1 µM) each time. The IC90 in experiment [7], in experiment [8] and in [9] was 11.3 µg/mL (≈ 25.1 µM) throughout.
Turning to `CN(C)CCC(O)(c1ccccc1)c1ccc2nc(N(C)C)cc(-c3ccccc3)c2c1` (stereo not shown) [Compound 47], the IC90 in experiment [1], in [2], in experiment [3], in experiment [4], in experiment [5] and in [6] was 10.7 µg/mL (≈ 25.1 µM) in each case. Besides, the IC90 in [7], in [8] and in experiment [9] was 10.7 µg/mL (≈ 25.1 µM) throughout.
As for `CC(=O)c1ccc(N2CCN(c3nc4c(C(O)(CCN(C)C)c5ccccc5)cc(Br)cc4cc3Cc3ccccc3)CC2)cc1` (stereo not shown) [Compound 54], the IC90 in [2], in [10], in experiment [3], in experiment [4], in experiment [6] and in experiment [7] was 17 µg/mL (≈ 25.1 µM) in each case.
Consider `CN(C)CCC(O)(c1ccccc1)c1cc(-c2cccnc2)cc2cc(-c3ccccc3)c(-c3cccnc3)nc12` (stereo not shown) [Compound 65], for which the IC90 in experiment [1], in experiment [2], in experiment [10], in [3], in experiment [4] and in experiment [5] was 13.5 µg/mL (≈ 25.2 µM) in each case. For the same compound, the IC90 in experiment [6], in experiment [7], in experiment [8] and in experiment [9] was 13.5 µg/mL (≈ 25.2 µM) each time.
Consider `COc1nc2c(C(O)(CCN(C)C)c3cccs3)cc(-c3cccnc3)cc2cc1Cc1ccccc1` (stereo not shown) [Compound 67], for which the IC90 in [1], in experiment [2], in [3], in [4], in experiment [5] and in experiment [6] was 51 µg/mL (≈ 100 µM) in each case. Moreover, the IC90 is 22.8 µg/mL (≈ 44.7 µM) in experiment [7], 51 µg/mL (≈ 100 µM) in experiment [8] and 51 µg/mL (≈ 100 µM) in experiment [9].
For `COc1nc2ccccc2c(CC(O)(CCN(C)C)c2cccc3ccccc23)c1Cc1ccccc1` (stereo not shown) [Compound 70], the IC90 is 12.3 µg/mL (≈ 25.1 µM) in [1]; 12.3 µg/mL (≈ 25.1 µM) in experiment [2]; 9.8 µg/mL (≈ 20 µM) in experiment [10]; 9.8 µg/mL (≈ 20 µM) in [3]; 9.8 µg/mL (≈ 20 µM) in experiment [4]; 12.3 µg/mL (≈ 25.1 µM) in experiment [5]. Besides, the IC90 in [6] stood at 49.1 µg/mL (≈ 100 µM); in experiment [7], 12.3 µg/mL (≈ 25.1 µM); in experiment [8], 39 µg/mL (≈ 79.5 µM); in experiment [9], 12.3 µg/mL (≈ 25.1 µM).
